How the values were obtained:
[1] = test system: MOG peptide 35-55 immunized B6 mice (experimental autoimmune encephalomyelitis); assay: Active EAE, ingested neuropeptide Y, clinical score; assay type: in vivo; details: vs placebo, p<0.001 ANOVA
[2] = test system: spinal cords of MOG peptide 35-55 immunized B6 mice; assay: Spinal cord histology, inflammatory foci, actively fed mice; assay type: in vivo; details: thirty days following immunization, mock fed 11.6±0.5
Procedure: Following sacrifice, spinal cords were removed and immersion fixed in 10% neutral buffered formalin for a minimum of two weeks. After fixation, cords were sectioned in entirety in the horizontal plane at approximately 3 mm intervals and processed to paraffin. Paraffin blocks were sectioned at 6-8 microns, and step sections were stained with hematoxylin and eosin and examined by light microscopy. Cord sections were evaluated independently for foci of inflammation by a blinded observer (SAB), without knowledge of the treatment status of the mice prior to sacrifice. Spinal cord tissue was sampled in an identical fashion for each animal and numbers of inflammatory foci per high-powered field (HPF) (>20 perivascular lymphocytes) in the parenchyma were counted.

[3] = test system: active MOG peptide 35-55 immunized recipient mice; assay: Adoptive transfer of splenocytes from neuropeptide Y fed donors, clinical score of recipients; assay type: in vivo, B6 mice; details: placebo donors maximum 2.3
[4] = test system: spinal cords of recipient mice; assay: Spinal cord histology, inflammatory foci, recipients of adoptively transferred cells; assay type: in vivo, B6 mice; details: thirteen days following adoptive transfer, placebo donors 7.48±0.28
Procedure: Thirty days after inoculation and after peak score of clinical attack, all spleens from each treatment group were aseptically removed, single cell suspensions prepared, and red cell lysis performed by adding 2-3 ml sterile water to single cells for 5 seconds, and once the solution became transparent, adding AIM-V media to a 50 ml tube. Splenocytes from grouped saline (mock) fed, 1 μg or 10 μg neuropeptide Y fed mice were re-stimulated with MOG peptide 35-55 at a final concentration of 10 μg/ml for 48 hours in serum free medium (AIM-V medium, Gibco BRL, Grand Island, N.Y.) with 2×10^5 cells/[…] in triplicate in 96 well U-bottomed plates in a humidified 5% CO2/95% air incubator at 37° C. Following incubation, cells were collected, washed twice in PBS, and viability determined by standard Trypan blue exclusion. […] Following administration of neuropeptide Y or adoptive transfer, clinical outcome is measured by comparing the difference between group mean active treatment and placebo group scores from day 17-30 post immunization.
Following sacrifice, spinal cords were removed and immersion fixed in 10% neutral buffered formalin for a minimum of two weeks. […] Cord sections were evaluated independently for foci of inflammation by a blinded observer (SAB), without knowledge of the treatment status of the mice prior to sacrifice. […]

[5] = test system: splenic lymphocytes stimulated with MOG peptide 35-55; assay: Cytokine secretion, MOG re-stimulated splenic lymphocytes of fed mice; assay type: in vivo, B6 mice
Procedure: (§1) Spleens and spinal cords (CNS) from each treatment group were aseptically removed and single cell suspensions prepared. In spinal cords, whole cords were passed through a cell strainer for CNS lymphocytes (B & D, Franklin Lakes, N.J.) and spun at 600 rpm several times to separate lymphocytes from CNS tissue. Splenocytes and cord lymphocytes from grouped saline fed or 10 mcg NPY fed mice were stimulated with 10 mcg MOG peptide 35-55×48 hours as previously described (5, 6). Murine cytokine responses were examined using a customized RayBio Mouse Cytokine Inflammatory Antibody Array including innate cytokine IL-1β and TNF-α, IL-17 (Teff), Th1-like (IL-2, IFN-γ), Th2-like cytokines (IL-4, IL-10, IL-13) and IL-12p70 using the RayBioantibody array Analysis tool application (RayBiotech, Inc, Norcross, Ga.). Results were grouped from mice fed saline or mice fed with NPY from grouped samples of two separate experiments (each sample performed in duplicate) and expressed as pg/ml±SEM (student t-test).

[6] = test system: CNS lymphocytes stimulated with MOG peptide 35-55; assay: Cytokine secretion, MOG re-stimulated CNS (spinal cord) lymphocytes of fed mice; assay type: in vivo, B6 mice
Procedure: as §1

[7] = test system: splenocytes of recipients stimulated with MOG peptide 35-55; assay: Cytokine secretion, splenic lymphocytes of recipients of donor cells; assay type: in vivo, B6 mice
Procedure: (§2) Thirty days after inoculation and after peak score of clinical attack, all spleens from each treatment group were aseptically removed, single cell suspensions prepared, and red cell lysis performed by adding 2-3 ml sterile water to single cells for 5 seconds, and once the solution became transparent, adding AIM-V media to a 50 ml tube. Splenocytes from grouped saline (mock) fed, 1 μg or 10 μg neuropeptide Y fed mice were re-stimulated with MOG peptide 35-55 at a final concentration of 10 μg/ml for 48 hours in serum free medium (AIM-V medium, Gibco BRL, Grand Island, N.Y.) with 2×10^5 cells/[…] in triplicate in 96 well U-bottomed plates in a humidified 5% CO2/95% air incubator at 37° C. Following incubation, cells were collected, washed twice in PBS, and viability determined by standard Trypan blue exclusion. Viable concentrations were adjusted to 10^7 cells/0.5 ml Dulbecco's PBS immediately prior to i.p. injection into active MOG peptide 35-55 immunized recipient mice during ongoing disease (˜day 17 post immunization). Following administration of neuropeptide Y or adoptive transfer, clinical outcome is measured by comparing the difference between group mean active treatment and placebo group scores from day 17-30 post immunization.
as §1

[8] = test system: CNS lymphocytes of recipients stimulated with MOG peptide 35-55; assay: Cytokine secretion, CNS lymphocytes of recipients of donor cells; assay type: in vivo, B6 mice
Procedure: as §2, §1

CD4+CD25+FoxP3+ Treg = assay: Phenotypic analysis (FACS) of Treg frequency; assay type: in vivo, B6 mice; details: data not shown
Procedure: CD25 and FOXP3 expression by CD3+CD4+ lymphocytes was analyzed using the Beckman Coulter 10-Color Gallios Flow Cytometer and mouse regulatory T Cell Staining Kit with PE Foxp3 FJK-16s, FITC CD4, APC CD25 (eBioscience, San Diego, Calif.) following the manufacturer's instructions.

[9] = Toxicity on extended oral administration; assay type: in vivo; details: orally administered to mice over an extended time period
[10] = test system: actively immunized recipients (ongoing disease); assay: Adoptive transfer of in vitro neuropeptide Y treated MOG restimulated activated macrophages; assay type: in vivo; details: preliminary experiments
[11] = test system: experimental autoimmune encephalomyelitis; details: parenteral, mice; cited from earlier work
[12] = test system: innate immune cytokines IL-1β or TNF-α; details: oral, recent EAE experiments; cited from earlier work
[13] = both fed groups (1 & 10 mcg) vs mock fed
[14] = splenic lymphocytes of recipients of fed donor cells vs mock
[15] = CNS lymphocytes of recipients of fed donor cells vs mock
[16] = CNS lymphocytes of recipients, 10 mcg fed group vs mock

In the case of Neuropeptide Y, the group clinical score ([1]; 1 mcg fed (gavage) from day 17, days 17-30 post immunization) is reported as “significant decreases in group clinical scores”, the group clinical score ([1]; 10 mcg fed (gavage) from day 17, days 17-30 post immunization) is reported as “significant decreases in group clinical scores” and the “mean group inflammatory score (inflammatory foci)” value ([2]; 1 mcg fed group) is reported as 6.4±0.16. The “mean group inflammatory score (inflammatory foci)” value ([2]; 10 mcg fed group) was 5.55±0.28, the “group clinical score at day 30” value ([3]; recipients of donor splenocytes from 1 mcg fed mice) was 1.4 and the “group clinical score at day 30” value ([3]; recipients of donor splenocytes from 10 mcg fed mice) was 0.88. The “mean group inflammatory score (CNS inflammatory foci)” value ([4]; recipients of 1 mcg fed donors) was 4.87±0.22, the “mean group inflammatory score (CNS inflammatory foci)” value ([4]; recipients of 10 mcg fed donors) was 5.91±0.22 and the IL-12p70 level ([5]; 10 mcg dosed vs mock fed) was “decreased”. For the same substance, the TNF-α level ([5]; 10 mcg dosed vs mock fed) was “decreased”, the IFN-γ level [5, 13] was “significant decreases” and the IL-1β level [5, 13] was “significant decreases”. The IL-2 level [5, 13] was “significant decreases”, the “MOG induced IL-4 production” value ([5]; dosed vs mock dosed) was “increased” and the “MOG induced IL-10 production” value ([5]; dosed vs mock dosed) was “increased”. For the same substance, the “MOG induced IL-13 production” value ([5]; dosed vs mock dosed) was “increased”, the “MOG induced IL-13 production” value ([6]; dosed vs mock dosed) was “increased” and the IFN-γ level ([6]; fed vs mock fed) was “significant decreases”. The IL-1β level ([6]; fed vs mock fed) was “significant decreases”, the IL-2 level ([6]; fed vs mock fed) was “significant decreases” and the IL-12 level ([6]; fed vs mock fed) was “significant decreases”. For the same substance, the “IL-17 (Teff) level” value ([6]; fed vs mock fed) was “significant decreases”, the TNF-α level ([6]; fed vs mock fed) was “significant decreases” and the IFN-γ level [7, 14] was “significant decreases”. The IL-1β level [7, 14] was “significant decreases”, the IL-12 level [7, 14] was “significant decreases” and the “IL-17 (Teff) level” value [7, 14] was “significant decreases”. For the same substance, the “MOG induced IL-13 production” value [7, 14] was “increased”, the TNF-α level [7, 14] was “significant decreases” and the IL-2 level ([7]; splenic lymphocytes of recipients, 10 mcg fed donor cells vs mock) was “significant decreases”. For the same substance, the IL-1β level [8, 15] was “significant decreases”, the “IL-17 (Teff) level” value [8, 15] was “significant decreases” and the IL-12 level ([8]; CNS lymphocytes of recipients of fed donor cells vs mock, p<0.03 (FIG. 8 legend)) was “decreased”. The “MOG induced IL-10 production” value ([8]; CNS lymphocytes of recipients, 1 mcg fed group vs mock) was “increased”, the IFN-γ level [8, 16] was “significant decreases” and the IL-2 level [8, 16] was “significant decreases”. The TNF-α level [8, 16] was “significant decreases”, the “MOG induced IL-13 production” value ([8]; CNS lymphocytes of recipients, both dosed groups vs mock) was “increased” and the “CD4+CD25+FoxP3+ cell frequency” value (CD4+CD25+FoxP3+ Treg; actively fed mice vs mock fed) was “no significant increase”. The “CD4+CD25+FoxP3+ cell frequency” value (CD4+CD25+FoxP3+ Treg; recipients of actively fed donor cells vs mock) was “no significant increase”, the toxicity [9] was “no detectable toxicity” and the “ongoing disease after adoptive transfer” value [10] was “robust inhibition”. The “induction of experimental autoimmune encephalomyelitis” value [11] was “significantly inhibits”.
In the case of “Adrenocorticotropin hormone (SYSMEHFRWGKPVGKKRRPVKVYPNGAEDESAEAFPLEF; Corticotropin; UniProt P01189 138-176, looked up) [ACTH]”, the “reduction of innate immune cytokines IL-1β or TNF-α” value [12] is given as “no reduction”.
